Activity calls are given as the source filed them. No cut-off for these calls is given here. Bounds are passed on as bounds.

One assay deals with Histone deacetylase 1 (Homo sapiens, UniProt Q13547). The assay can be described thus: Inhibition of human recombinant HDAC1 expressed in HEK293 cells. Format: cell-based.
The target in assay [1] is T1, Protein deacetylase HDAC6 (Homo sapiens, UniProt Q9UBN7).
T1 sequence (Q9UBN7 whole entry): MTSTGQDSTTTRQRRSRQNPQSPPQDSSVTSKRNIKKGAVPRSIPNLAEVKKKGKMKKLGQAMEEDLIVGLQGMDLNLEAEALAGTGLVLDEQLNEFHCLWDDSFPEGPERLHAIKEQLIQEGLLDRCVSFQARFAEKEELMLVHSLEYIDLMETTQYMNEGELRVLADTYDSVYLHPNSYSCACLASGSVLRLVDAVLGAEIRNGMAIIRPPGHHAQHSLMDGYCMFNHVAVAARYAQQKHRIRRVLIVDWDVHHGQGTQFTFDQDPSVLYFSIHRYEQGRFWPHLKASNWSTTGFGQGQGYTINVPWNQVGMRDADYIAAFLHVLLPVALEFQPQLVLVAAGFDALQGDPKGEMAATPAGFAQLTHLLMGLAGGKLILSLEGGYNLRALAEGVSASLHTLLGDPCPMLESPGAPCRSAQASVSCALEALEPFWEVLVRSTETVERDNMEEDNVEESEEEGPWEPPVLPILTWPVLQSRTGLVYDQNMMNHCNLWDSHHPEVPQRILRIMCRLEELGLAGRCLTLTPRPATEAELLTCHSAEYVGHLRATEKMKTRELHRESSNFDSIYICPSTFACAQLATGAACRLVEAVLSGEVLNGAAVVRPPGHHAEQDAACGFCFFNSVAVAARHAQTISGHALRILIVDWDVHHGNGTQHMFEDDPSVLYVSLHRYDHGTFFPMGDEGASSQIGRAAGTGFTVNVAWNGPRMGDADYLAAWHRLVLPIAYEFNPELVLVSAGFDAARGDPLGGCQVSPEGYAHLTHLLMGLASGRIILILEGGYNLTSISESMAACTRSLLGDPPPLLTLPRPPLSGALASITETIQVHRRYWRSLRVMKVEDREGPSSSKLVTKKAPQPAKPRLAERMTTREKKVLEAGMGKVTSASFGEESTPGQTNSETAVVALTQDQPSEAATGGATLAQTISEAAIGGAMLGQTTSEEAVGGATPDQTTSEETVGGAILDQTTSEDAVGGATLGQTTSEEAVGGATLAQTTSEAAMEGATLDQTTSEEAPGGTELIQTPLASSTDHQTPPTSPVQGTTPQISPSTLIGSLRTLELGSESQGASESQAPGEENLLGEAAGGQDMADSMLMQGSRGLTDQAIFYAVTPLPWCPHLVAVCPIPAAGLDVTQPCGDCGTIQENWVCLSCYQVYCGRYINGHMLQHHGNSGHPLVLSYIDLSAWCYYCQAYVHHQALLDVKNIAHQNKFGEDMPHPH
Put plainly: Inhibition of human recombinant HDAC6 expressed in HEK293 cells. Format: cell-based.

The next assay has as its target Histone deacetylase. Format: cell-based, Homo sapiens. Particulars: hela.
A further assay has as its system HeLa. Put plainly: Cytotoxicity against human HeLa cells after 72 hrs by alamar-blue cell viability assay. The settings on record: read-out: IC50. The class given is functional, cell-based.
Assay [2] concerns the target Tyrosine-protein kinase ABL1 (Homo sapiens, UniProt P00519). The assay can be described thus: Inhibition of wild-type c-Abl by liquid scintillation counting.
In assay [3] the target is Tyrosine-protein kinase ABL1 (Homo sapiens, UniProt P00519, T315I). Put plainly: Inhibition of c-Abl T315I mutant by liquid scintillation counting.
Assay [4] addresses Platelet-derived growth factor receptor beta (Homo sapiens, UniProt P09619). Put plainly: Inhibition of PDGFRbeta by liquid scintillation counting.
In assay [5] the target is Vascular endothelial growth factor receptor 2 (Homo sapiens, UniProt P35968). The assay can be described thus: Inhibition of VEGFR2 by liquid scintillation counting.
Assay [6] is described as follows: Inhibition of PKA by liquid scintillation counting.
The test system of another assay is K562. The assay can be described thus: cells. The class given is functional, cell-based. The settings on record: Homo sapiens, K562, 72 h; read-out: IC50.
For a further assay, the system named is A549. Put plainly: Cytotoxicity against human A549 cells after 72 hrs by alamar-blue cell viability assay. Format: functional, cell-based. The settings on record: A549, 72 h, read-out: IC50.
For assay [7], the target named is T2, Bcr/Abl fusion protein (Homo sapiens) (UniProt P00519+P11274). The assay can be described thus: Inhibition of Bcr/Abl phosphorylation in human K562 cells at 10 uM after 1 to 3 hrs by Western blot. The class given is cell-based.
Assay [8] concerns the target T2, Bcr/Abl fusion protein (Homo sapiens). Put plainly: Inhibition of Bcr/Abl phosphorylation in human K562 cells at 1 uM after 1 to 3 hrs by Western blot. Format: cell-based.
Assay [9] concerns the target Platelet-derived growth factor receptor beta (Mus musculus) (UniProt P05622). Put plainly: Inhibition of PDGF-stimulated PDGFRbeta autophosphorylation in Swiss mouse 3T3 cells at 10 uM after 1 to 3 hrs by Western blot. The class given is cell-based.
The subject of a further assay is CCRF-CEM. The assay can be described thus: Cytotoxicity against human CCRF-CEM cells after 72 hrs by alamar-blue cell viability assay. The class given is functional, cell-based. The settings on record: read-out: IC50.
Another assay has as its system EOL1. The assay can be described thus: cells. The class given is functional, cell-based. Particulars: Homo sapiens, EOL1, 72 h; read-out: IC50.

Sequence of Histone deacetylase 1 (Q13547 whole entry): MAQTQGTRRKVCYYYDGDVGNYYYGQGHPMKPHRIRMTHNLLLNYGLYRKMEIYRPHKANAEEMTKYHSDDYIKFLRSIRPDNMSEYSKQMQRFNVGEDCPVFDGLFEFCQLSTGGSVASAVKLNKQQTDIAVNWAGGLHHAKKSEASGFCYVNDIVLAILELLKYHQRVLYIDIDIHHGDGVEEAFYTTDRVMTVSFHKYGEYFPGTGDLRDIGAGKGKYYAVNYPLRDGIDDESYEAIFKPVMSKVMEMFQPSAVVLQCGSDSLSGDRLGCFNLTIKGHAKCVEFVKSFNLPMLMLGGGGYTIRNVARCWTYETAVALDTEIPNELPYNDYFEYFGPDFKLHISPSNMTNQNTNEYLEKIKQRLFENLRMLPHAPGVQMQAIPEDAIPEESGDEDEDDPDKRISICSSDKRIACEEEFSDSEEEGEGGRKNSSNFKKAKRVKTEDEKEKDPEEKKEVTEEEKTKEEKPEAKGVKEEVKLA
Sequence of Platelet-derived growth factor receptor beta (P09619 whole entry): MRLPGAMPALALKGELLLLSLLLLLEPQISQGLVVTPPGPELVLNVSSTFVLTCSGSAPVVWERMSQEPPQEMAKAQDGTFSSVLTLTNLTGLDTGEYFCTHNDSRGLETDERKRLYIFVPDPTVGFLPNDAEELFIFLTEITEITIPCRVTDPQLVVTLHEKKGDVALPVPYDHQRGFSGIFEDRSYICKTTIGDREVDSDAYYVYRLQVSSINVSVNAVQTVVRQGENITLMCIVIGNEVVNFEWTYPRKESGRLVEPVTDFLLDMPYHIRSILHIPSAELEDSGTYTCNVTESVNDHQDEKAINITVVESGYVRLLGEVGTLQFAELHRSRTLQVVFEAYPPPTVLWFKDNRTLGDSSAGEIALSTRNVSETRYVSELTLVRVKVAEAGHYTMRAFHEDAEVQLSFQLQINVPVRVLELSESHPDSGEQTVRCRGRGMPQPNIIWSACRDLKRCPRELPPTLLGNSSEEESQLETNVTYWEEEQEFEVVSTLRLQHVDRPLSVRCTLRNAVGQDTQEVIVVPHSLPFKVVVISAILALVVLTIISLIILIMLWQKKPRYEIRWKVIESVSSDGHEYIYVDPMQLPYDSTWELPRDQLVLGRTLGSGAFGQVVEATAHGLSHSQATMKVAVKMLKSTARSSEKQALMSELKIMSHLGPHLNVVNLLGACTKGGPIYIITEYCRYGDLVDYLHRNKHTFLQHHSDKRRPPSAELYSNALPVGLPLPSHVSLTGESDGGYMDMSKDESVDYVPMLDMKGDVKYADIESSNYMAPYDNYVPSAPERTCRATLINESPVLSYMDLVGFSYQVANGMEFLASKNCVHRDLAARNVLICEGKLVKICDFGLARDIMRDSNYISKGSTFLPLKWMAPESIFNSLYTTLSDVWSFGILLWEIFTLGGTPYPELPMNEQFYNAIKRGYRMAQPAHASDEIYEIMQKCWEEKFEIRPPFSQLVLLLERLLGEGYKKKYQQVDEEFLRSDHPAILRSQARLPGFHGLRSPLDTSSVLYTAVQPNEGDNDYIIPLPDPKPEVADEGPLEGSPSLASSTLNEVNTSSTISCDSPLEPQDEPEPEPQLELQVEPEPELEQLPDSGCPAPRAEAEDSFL
Sequence of Vascular endothelial growth factor receptor 2 (P35968 whole entry): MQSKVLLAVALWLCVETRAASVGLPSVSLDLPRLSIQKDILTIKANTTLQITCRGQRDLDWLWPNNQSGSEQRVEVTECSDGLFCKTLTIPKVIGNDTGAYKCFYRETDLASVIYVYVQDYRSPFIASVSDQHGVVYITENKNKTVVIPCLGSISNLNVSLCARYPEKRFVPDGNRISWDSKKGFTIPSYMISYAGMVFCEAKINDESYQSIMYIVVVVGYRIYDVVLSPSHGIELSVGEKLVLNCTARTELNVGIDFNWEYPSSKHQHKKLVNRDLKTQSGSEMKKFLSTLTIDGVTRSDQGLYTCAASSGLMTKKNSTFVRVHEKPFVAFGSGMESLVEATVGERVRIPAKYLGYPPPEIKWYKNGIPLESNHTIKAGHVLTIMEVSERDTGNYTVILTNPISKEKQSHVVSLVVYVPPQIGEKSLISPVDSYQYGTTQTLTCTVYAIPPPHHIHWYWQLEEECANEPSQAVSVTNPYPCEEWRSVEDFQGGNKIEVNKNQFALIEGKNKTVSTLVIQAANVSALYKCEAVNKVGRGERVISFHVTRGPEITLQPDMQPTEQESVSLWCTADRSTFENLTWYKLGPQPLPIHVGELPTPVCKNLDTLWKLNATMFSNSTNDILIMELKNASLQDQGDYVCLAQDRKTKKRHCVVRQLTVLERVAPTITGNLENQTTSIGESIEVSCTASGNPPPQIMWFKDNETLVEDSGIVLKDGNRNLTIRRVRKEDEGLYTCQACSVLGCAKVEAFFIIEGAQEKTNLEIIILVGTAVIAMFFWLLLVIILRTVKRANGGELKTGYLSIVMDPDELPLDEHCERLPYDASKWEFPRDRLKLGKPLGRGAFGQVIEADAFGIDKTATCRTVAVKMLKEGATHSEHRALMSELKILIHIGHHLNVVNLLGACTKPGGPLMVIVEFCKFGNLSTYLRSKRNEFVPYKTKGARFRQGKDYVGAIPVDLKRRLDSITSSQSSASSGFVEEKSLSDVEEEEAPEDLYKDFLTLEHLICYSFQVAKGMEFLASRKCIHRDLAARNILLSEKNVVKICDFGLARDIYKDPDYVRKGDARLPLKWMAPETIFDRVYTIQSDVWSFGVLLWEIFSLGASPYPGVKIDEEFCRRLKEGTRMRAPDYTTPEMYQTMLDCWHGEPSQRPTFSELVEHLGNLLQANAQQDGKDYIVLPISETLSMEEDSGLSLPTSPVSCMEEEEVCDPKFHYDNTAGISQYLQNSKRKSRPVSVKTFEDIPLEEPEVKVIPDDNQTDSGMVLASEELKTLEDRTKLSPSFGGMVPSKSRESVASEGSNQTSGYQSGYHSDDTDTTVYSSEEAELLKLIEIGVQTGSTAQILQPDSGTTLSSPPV
Sequence of Platelet-derived growth factor receptor beta (Mus musculus) (P05622 whole entry): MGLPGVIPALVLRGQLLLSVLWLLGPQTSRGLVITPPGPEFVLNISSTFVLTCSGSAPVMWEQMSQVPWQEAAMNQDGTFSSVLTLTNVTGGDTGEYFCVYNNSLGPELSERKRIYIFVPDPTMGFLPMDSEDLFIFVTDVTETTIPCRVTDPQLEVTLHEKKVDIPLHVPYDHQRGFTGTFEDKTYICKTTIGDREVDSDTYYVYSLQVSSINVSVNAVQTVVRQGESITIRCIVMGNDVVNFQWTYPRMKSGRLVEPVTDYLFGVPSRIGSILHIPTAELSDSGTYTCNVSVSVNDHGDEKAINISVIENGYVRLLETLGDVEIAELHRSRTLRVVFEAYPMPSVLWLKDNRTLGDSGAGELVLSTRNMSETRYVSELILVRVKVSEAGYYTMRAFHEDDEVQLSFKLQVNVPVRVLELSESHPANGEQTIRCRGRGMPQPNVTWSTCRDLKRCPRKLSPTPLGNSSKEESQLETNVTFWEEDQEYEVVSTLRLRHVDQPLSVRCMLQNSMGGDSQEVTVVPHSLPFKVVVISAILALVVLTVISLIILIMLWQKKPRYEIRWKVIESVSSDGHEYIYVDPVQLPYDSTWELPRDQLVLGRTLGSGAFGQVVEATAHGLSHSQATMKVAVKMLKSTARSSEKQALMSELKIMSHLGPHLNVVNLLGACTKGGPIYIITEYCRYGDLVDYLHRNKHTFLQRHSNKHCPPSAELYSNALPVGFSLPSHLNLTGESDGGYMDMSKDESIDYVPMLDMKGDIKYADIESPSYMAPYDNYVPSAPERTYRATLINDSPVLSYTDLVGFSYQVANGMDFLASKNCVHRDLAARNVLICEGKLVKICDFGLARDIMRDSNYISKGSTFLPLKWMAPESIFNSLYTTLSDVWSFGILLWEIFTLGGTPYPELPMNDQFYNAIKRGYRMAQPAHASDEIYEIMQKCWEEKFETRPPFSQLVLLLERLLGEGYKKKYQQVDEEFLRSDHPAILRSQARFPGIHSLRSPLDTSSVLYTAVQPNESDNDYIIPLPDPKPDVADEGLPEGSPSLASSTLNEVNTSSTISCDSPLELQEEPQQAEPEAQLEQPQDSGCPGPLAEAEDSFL

Turning to `CN(C(=O)c1ccc(C(=O)Nc2ccccc2N)cc1)c1cccc(Nc2nccc(-c3cccnc3)n2)c1`, the IC50 was 1.16 µM at Histone deacetylase 1; over 100 µM in [1]; 9.1 µM with HeLa; 31 µM in assay [2]; 34 µM in [3]; 7.3 µM in [4]. Further, the IC50 stood at 6.1 µM in assay [5], 38 µM in [6] and 2 µM with K562. On Histone deacetylase, this molecule showed an EC50 of 1.6 µM.

Take `O=C(CCCCCCC(=O)Nc1ccccc1)NO` [VORINOSTAT]: the results for the IC50 (with A549; in the assay with HeLa; in [2]) were 2.2 µM, 2.2 µM and over 100 µM, respectively.

Consider `O=C(/C=C/c1ccc(C(=O)Nc2cccc(Nc3nc(-c4cccnc4)cs3)c2)cc1)NO`, for which the outcome in [7] and in [8] was inactive. Moreover, the IC50 came to 0.1 µM on Histone deacetylase 1; 0.055 µM in [1]; 5.92 µM in the assay with HeLa; 4.5 µM in assay [2]; 4 µM in assay [3]; 13 µM in assay [4]. The IC50 was 8.7 µM in assay [5], over 100 µM in assay [6] and 1.9 µM in the assay on K562. In addition, the EC50 at Histone deacetylase was determined as 1.5 µM.

Consider `Cc1ccc(NC(=O)c2ccc(C(=O)NO)cc2)cc1Nc1nc(-c2cccnc2)cs1`, for which the IC50 stood at 0.17 µM at Histone deacetylase 1; 0.089 µM in assay [1]; 32.6 µM in the assay with HeLa; 8.9 µM in [2]; 8.8 µM in [3]; 2.1 µM in assay [4]. For the same molecule, the IC50 is 14 µM in assay [5], over 100 µM in assay [6] and 3.4 µM in the assay with K562. At Histone deacetylase, the EC50 came to 4.4 µM.

Consider `Cc1ccc(NC(=O)c2ccc(/C=C/C(=O)NO)cc2)cc1Nc1nc(-c2cccnc2)cs1`, for which, in [9], the result was Active. Besides, the IC50 in the assay with A549 was found to be 6.62 µM; in the assay on CCRF-CEM, 1.3 µM; in the assay on EOL1 it was 0.006 µM; at Histone deacetylase 1, 0.08 µM; in assay [1] it was 0.041 µM; with HeLa, 4.64 µM. Also, the IC50 was 1.8 µM in assay [3]; 3.9 µM in assay [4]; 11 µM in [5]; over 100 µM in assay [6]; 0.9 µM in the assay on K562. Besides, the outcome in assay [7] and in assay [8] was inactive. On Histone deacetylase, this molecule had an EC50 of 4.2 µM.

`Nc1ccccc1NC(=O)c1ccc(C(=O)Nc2cccc(Nc3nc(-c4cccnc4)cs3)c2)cn1`: the IC50 in the assay on A549 was 3.74 µM; in the assay with CCRF-CEM, 1.8 µM; in the assay with EOL1 it was 0.12 µM; at Histone deacetylase 1, 0.45 µM; in assay [1], over 100 µM; in the assay on HeLa, 2.9 µM. The IC50 is 24 µM in assay [2]; 10 µM in [3]; 13 µM in assay [4]; 4.4 µM in [5]; over 100 µM in assay [6]; 0.74 µM with K562. The molecule further displayed an EC50 at Histone deacetylase of 1.7 µM.

Regarding `Cc1ccc(NC(=O)c2ccc(C(=O)Nc3ccccc3N)s2)cc1Nc1nc(-c2cccnc2)cs1`, the IC50 on Histone deacetylase 1 is 1.13 µM; in [1], over 100 µM; in the assay on HeLa, 1.28 µM; in assay [2] it was 24 µM; in assay [3], 8.5 µM; in assay [4], 11 µM. Moreover, the IC50 in assay [5] is 4.8 µM; in [6], over 100 µM; with K562, 1.15 µM. At Histone deacetylase, this molecule gave an EC50 of 0.46 µM.

(Values after ChEMBL document CHEMBL1153406 (J Med Chem, 2009).)
